# Measurements: patent publication US20190076452A1, “THERAPEUTIC COMBINATIONS FOR TREATING NEOPLASIA” (MEDIMMUNE LIMITED, priority 2014, published 2019)
# B1: OX40 FP: mouse OX40 fusion protein produced by MedImmune (protein)
# chain: SSSPAKDPPIQRLRGAVTRCEDGQLFISSYKNEYQTMEVQNNSVVIKCDGLYIIYLKGSFFQEVKIDLHFREDHNPISIPMLNDGRRIVFTVVASLAFKDKVYLTVNAPDTLCEHLQINDGELIVVQLTPGYCAPEGSYHSTVNQVPL
# modifications: left off: a dimerising Fc or GST
# notes: mouse OX40 fusion protein produced by MedImmune
# B2: MEDI4736: human monoclonal antibody directed against human PD-L1 (antibody, V domains shown)
# VH: EVQLVESGGGLVQPGGSLRLSCAASGFTFSRYWMSWVRQAPGKGLEWVANIKQDGSEKYYVDSVKGRFTISRDNAKNSLYLQMNSLRAEDTAVYYCAREGGWFGELAFDYWGQGTLVTVSS
# VL: EIVLTQSPGTLSLSPGERATLSCRASQRVSSSYLAWYQQKPGQAPRLLIYDASSRATGIPDRFSGSGSGTDFTLTISRLEPEDFAVYYCQQYGSLPWTFGQGTKVEIK
# Tests used:
# CT26 tumors [1] = assay: Established CT26 tumors in T cell-deficient athymic nude mice; format: in vivo; conditions: maximally tolerated doses, tumors approximately 200 mm^3, immunodeficient mice
# Description: FIG. 4A is a graph showing tumor volume in CT26 tumor-bearing athymic nude mice dosed with Doxil (5 mg/kg) or Doxorubicin (5 mg/kg) as indicated. FIG. 4B is a graph showing tumor volume in CT26 tumor-bearing Balb/C mice dosed with Doxil (5 mg/kg) or Doxorubicin (5 mg/kg) as indicated. FIG. 4C is a graph showing tumor volume in CT26 tumor-bearing athymic nude mice dosed with gemcitabine (75 mg/kg) as indicated. FIG. 4D is a graph showing tumor volume in CT26 tumor-bearing Balb/C mice dosed with gemcitabine (75 mg/kg) as indicated. FIG. 4E is a graph showing tumor volume in CT26 tumor-bearing athymic nude mice dosed with oxiplatin (8 mg/kg) as indicated. […]
# (§1) A CT26 model was used in several studies. […] The number of animals per group ranged from between 10-12 animals per group as determined based on sample size calculations using nQuery software. Both tumor and body weight measurements were collected twice weekly and tumor volume calculated using the equation (L×W^2)/2, where L and W refers to the length and width dimensions, respectively. Error bars were calculated as standard error of the mean. The general health of mice was monitored daily and all experiments were conducted in accordance to AAALAC and MedImmune IACUC guidelines for humane treatment and care of laboratory animals.
# CT26 tumors [2] = assay: Established CT26 tumors in immunocompetent Balb/C mice; format: in vivo; conditions: maximally tolerated doses, tumors approximately 200 mm^3, immunocompetent mice
# Description: FIG. 4A is a graph showing tumor volume in CT26 tumor-bearing athymic nude mice dosed with Doxil (5 mg/kg) or Doxorubicin (5 mg/kg) as indicated. FIG. 4B is a graph showing tumor volume in CT26 tumor-bearing Balb/C mice dosed with Doxil (5 mg/kg) or Doxorubicin (5 mg/kg) as indicated. FIG. 4C is a graph showing tumor volume in CT26 tumor-bearing athymic nude mice dosed with gemcitabine (75 mg/kg) as indicated. FIG. 4D is a graph showing tumor volume in CT26 tumor-bearing Balb/C mice dosed with gemcitabine (75 mg/kg) as indicated. FIG. 4E is a graph showing tumor volume in CT26 tumor-bearing athymic nude mice dosed with oxiplatin (8 mg/kg) as indicated. FIG. 4F is a graph showing tumor volume in CT26 tumor-bearing Balb/C mice dosed with oxiplatin (8 mg/kg) as indicated. Arrows indicate dose administration.
# A CT26 model was used in several studies. CT26 cells are murine colon cancer cells. CT26 cells were obtained from the ATCC (Manassas, Va.), and were grown with RPMI supplemented with 10% fetal bovine serum. Following receipt, cell lines were re-authenticated using STR-based DNA profiling and multiplex PCR (IDEXX Bioresearch, Columbia, Mo.). Cells were grown in monolayer culture, harvested by trypsinizatin, and implanted subcutaneously into the right flank of 6-8 week old female Balb/C (CT26), C57/Bl6 (MCA205), or 4-6 week athymic female nude mice (Harlan, Indianapolis, Ind.). For the CT26 tumor model, 5×10^5 cells were implanted in the right flank using a 26-gauge needle. […] The number of animals per group ranged from between 10-12 animals per group as determined based on sample size calculations using nQuery software. Both tumor and body weight measurements were collected twice weekly and tumor volume calculated using the equation (L×W^2)/2, where L and W refers to the length and width dimensions, respectively. Error bars were calculated as standard error of the mean. The general health of mice was monitored daily and all experiments were conducted in accordance to AAALAC and MedImmune IACUC guidelines for humane treatment and care of laboratory animals.
# CT26 cells = assay: CT26 tumor model, preventative treatment before measurable tumor; format: in vivo, Balb/C mice
# Description: A CT26 model was used in several studies. CT26 cells are murine colon cancer cells. CT26 cells were obtained from the ATCC (Manassas, Va.), and were grown with RPMI supplemented with 10% fetal bovine serum. Following receipt, cell lines were re-authenticated using STR-based DNA profiling and multiplex PCR (IDEXX Bioresearch, Columbia, Mo.). Cells were grown in monolayer culture, harvested by trypsinizatin, and implanted subcutaneously into the right flank of 6-8 week old female Balb/C (CT26), C57/Bl6 (MCA205), or 4-6 week athymic female nude mice (Harlan, Indianapolis, Ind.). For the CT26 tumor model, 5×10^5 cells were implanted in the right flank using a 26-gauge needle. Antibodies were obtained from Anti-PD-1 (RMP1-14), anti-PD-L1 (10F.9G2), anti-CTLA-4 (9D9), and mouse IgG2b control (MPC-11). Mouse OX40 fusion protein (OX40 FP) and Rat IgG2a isotype control antibodies were produced by MedImmune (Gaithersburg, Md.). All antibodies and OX40 FP were dosed via intraperitoneal injection. Doxil (Bluedoor Pharma, Rockville, Md.) and doxorubicin (Henry Schein, Melville, N.Y.) were dosed via intravenous administration. In some studies, isotype controls were administered to mice as a cocktail of rat IgG2a and mouse IgG2b. At the beginning of treatment, mice were either randomized by tumor volume (established-tumor studies) or by body weight (preventative studies). The number of animals per group ranged from between 10-12 animals per group as determined based on sample size calculations using nQuery software. Both tumor and body weight measurements were collected twice weekly and tumor volume calculated using the equation (L×W^2)/2, where L and W refers to the length and width dimensions, respectively. Error bars were calculated as standard error of the mean. The general health of mice was monitored daily and all experiments were conducted in accordance to AAALAC and MedImmune IACUC guidelines for humane treatment and care of laboratory animals.
# CT26 tumors [3] = assay: Established CT26 tumor model, Doxil combined with immunotherapies; format: in vivo, Balb/C mice; conditions: maximally efficacious doses
# Description: FIGS. 5A-5L show synergistic anti-tumor responses of Doxil in combination with multiple immunotherapies in an established CT26 tumor model. FIG. 5A is a graph depicting tumor volume in untreated mice. FIG. 5B is a graph depicting tumor volume in mice administered Doxil. FIG. 5C is a graph depicting tumor volume in mice administered OX40L fusion protein (FP). FIG. 5D is a graph depicting tumor volume in mice administered α-PD-1. FIG. 5E is a graph depicting tumor volume in mice administered α-PD-L1. FIG. 5F is a graph depicting tumor volume in mice administered α-CTLA-4. FIG. 5G is a graph depicting tumor volume in mice administered GITR ligand fusion protein (GITRL FP). FIG. 5H is a graph depicting tumor volume in mice administered Doxil+OX40L FP. […]
# as §1, with “animals. […]” for “animals.”
# MCA205 tumors = assay: Established MCA205 syngeneic tumor model; format: in vivo, C57/Bl6 mice; conditions: maximally efficacious doses
# Description: FIGS. 7A-7L show synergistic anti-tumor responses of Doxil in combination with α-PD-1, α-PD-L1 and α-CTLA-4 antibodies in the MCA205 syngeneic model. FIG. 7A is a graph depicting tumor volume in untreated mice. FIG. 7B is a graph depicting tumor volume in mice administered Doxil. FIG. 7C is a graph depicting tumor volume in mice administered OX40L fusion protein (FP). FIG. 7D is a graph depicting tumor volume in mice administered α-PD-1. FIG. 7E is a graph depicting tumor volume in mice administered α-PD-L1. FIG. 7F is a graph depicting tumor volume in mice administered α-CTLA-4. FIG. 7G is a graph depicting tumor volume in mice administered GITR ligand fusion protein (GITRL FP). […]
# As CT26 is highly sensitive to immunotherapies, it was determined whether Doxil could enhance the activity of immunotherapies in a less sensitive model, MCA205. […]
# MCA205 cells were obtained from Agonox (Portland, Oreg.) and grown in RPMI supplemented with 10% fetal bovine serum. […] The number of animals per group ranged from between 10-12 animals per group as determined based on sample size calculations using nQuery software. Both tumor and body weight measurements were collected twice weekly and tumor volume calculated using the equation (L×W^2)/2, where L and W refers to the length and width dimensions, respectively. Error bars were calculated as standard error of the mean. […]
# xenograft model = conditions: T-cell dependent mechanism; cited from earlier work
molecule,measurement,setting,value
Nc1ccn([C@@H]2O[C@H](CO)[C@@H](O)C2(F)F)c(=O)n1 [gemcitabine],anti-tumor activity,CT26 tumors [1],significant anti-tumor activity
same,anti-tumor activity,CT26 tumors [2],significant anti-tumor activity
O=C1[O][Pt]2([NH][C@@H]3CCCC[C@H]3[NH]2)[O]C1=O [Oxaliplatin],anti-tumor activity,CT26 tumors [2],increased antitumor activity
"COc1cccc2c1C(=O)c1c(O)c3c(c(O)c1C2=O)C[C@@](O)(C(=O)CO)C[C@@H]3O[C@H]1C[C@H](N)[C@H](O)[C@H](C)O1 [Doxorubicin, doxorubicin]",No. of CRs,CT26 cells; 1 mg/kg,0/10
same,No. of CRs,CT26 cells; 4 mg/kg,2/10
same,number of complete responders,CT26 cells; doxorubicin 4 mg/kg alone or combined with antibody,2 animals
same,anti-tumor activity,CT26 tumors [1],did not elicit anti-tumor activity
same,anti-tumor activity,CT26 tumors [2],did not elicit anti-tumor activity
B1,anti-tumor activity,CT26 tumors [3]; tumors 200-300 mm^3,low to moderate activity
same,complete responders,"CT26 tumors [3]; tumors 200-300 mm^3, out of 12 mice",a few
same,anti-tumor activity,MCA205 tumors; tumors 100-150 mm^3,minimally active
same,complete response,"MCA205 tumors; tumors 100-150 mm^3, out of 12 mice",one
B2,tumor growth,xenograft model,inhibits tumor growth
